We go through 13 compounds from ChEMBL document CHEMBL5518183, “Broad-spectrum antiviral strategy: Host-targeting antivirals against emerging and re-emerging viruses” (Eur J Med Chem, 2024).

Assay [1] relates to SARS-CoV-2. As to the kind of experiment: Antiviral activity against SARS-CoV-2 infected in BALB/c mouse assessed as survival rate at 10 uM measured after 3 to 5 days. In kind it is functional, Severe acute respiratory syndrome coronavirus 2. As to conditions: time 3-5 day.
For the next assay, the system named is Hepatitis B virus. As to the kind of experiment: Antiviral activity against HBV genotype A infected in human HepG2 cells assessed as inhibition of viral replication. The assay is classed as functional, organism-based.
In another assay the test system is Caco-2. In words: Cytotoxicity against human Caco-2 cells assessed as reduction in cell growth measured fpr 48 hrs by MTT assay. In kind it is functional.
The subject of assay [2] is SARS-CoV-2. As to the kind of experiment: Antiviral activity against SARS-CoV-2 infected in African green monkey Vero E6 cells assessed as inhibition of viral replication. The assay is classed as functional, organism-based. As to conditions: Severe acute respiratory syndrome coronavirus 2, Vero C1008.
The test system of assay [3] is Human immunodeficiency virus 1. As to the kind of experiment: Antiviral activity against HIV1 infected in H9 cells assessed as reduction in viral replication. As to conditions: Human immunodeficiency virus 1, H9. The assay is classed as functional, organism-based.
The next assay concerns Enterovirus A71. As to the kind of experiment: Antiviral activity against human EV71 infected in HEK293 cells assessed as reduction in viral replication at MOI of 1 incubated for 48 hrs by luciferase assay. In kind it is functional, organism-based. As to conditions: Enterovirus A, HEK293, 48 h.
In assay [4] the test system is SARS-CoV-2. As to the kind of experiment: Antiviral activity against SARS-CoV-2 USA-WA1/2020 infected in human A549-ACE2 cells assessed as reduction in viral replication. As to conditions: Severe acute respiratory syndrome coronavirus 2, USA-WA1/2020, A549-ACE2. The assay is classed as functional, organism-based.
Assay [5] deals with Respiratory syncytial virus. In words: Antiviral activity against RSV infected in human HepG2 cells assessed as inhibition of virus induced cytopathic effect measured for 60 mins by MTT assay. As to conditions: HepG2, 1 h. The assay is classed as functional, organism-based.
Assay [6] has as its system Respiratory syncytial virus. As to the kind of experiment: Antiviral activity against RSV A2 infected in human HepG2 cells assessed as inhibition of virus induced cytopathic effect measured after 72 hrs by MTT assay. In kind it is functional, organism-based. As to conditions: HepG2, 72 h.
A further assay relates to Hepatitis C virus. As to the kind of experiment: Antiviral activity against Hepatitis C virus infected in Huh7.5 cells assessed as reduction in viral growth. The assay is classed as functional, organism-based, Hepacivirus hominis.
Assay [7] relates to Human immunodeficiency virus 1. As to the kind of experiment: Antiviral activity against HIV-1 3B infected in human MT4 cells assessed as reduction in virus induced cytopathic effect incubated for 5 days by Cell Titer Glo luminescent assay. The assay is classed as functional, organism-based. As to conditions: Human immunodeficiency virus 1, 3B, MT4, 120 h.
For the next assay, the system named is MT4. As to the kind of experiment: Cytotoxicity against human MT4 cells assessed as reduction in cell viability incubated for 72 hrs by celltiter glo assay. The assay is classed as functional.
The test system of the next assay is West Nile virus. In words: Antiviral activity against West Nile virus infected in African green monkey Vero cells assessed as inhibition of virus induced cytopathic effect incubated for 48 hrs by MTS assay. In kind it is functional, organism-based.
The target of assay [8] is Virion infectivity factor (Human immunodeficiency virus type 1 group M subtype B (isolate NY5)(HIV-1), UniProt P12504). As to the kind of experiment: Inhibition of HIV1 Vif. Further details: species or system Human immunodeficiency virus 1.
Assay [9] has as its system SARS-CoV-2. In words: Antiviral activity against SARS-CoV-2 infected in African green monkey Vero E6 cells assessed as reduction in viral replication incubated for 24 hrs by Immunofluorescence assay. In kind it is functional, organism-based. As to conditions: Severe acute respiratory syndrome coronavirus 2, Vero C1008, 24 h.
For assay [10], the system named is SARS-CoV-2. As to the kind of experiment: Antiviral activity against SARS-CoV-2 infected in African green monkey Vero E6 cells assessed as inhibition of virus growth. In kind it is functional, organism-based. As to conditions: Severe acute respiratory syndrome coronavirus 2, Vero C1008.
Assay [11] deals with SARS-CoV-2. As to the kind of experiment: Antiviral activity against SARS-CoV-2 infected in […] Vero cells assessed as reduction in viral replication incubated for 24 hrs by Immunofluorescence assay. The assay is classed as functional, organism-based. As to conditions: Severe acute respiratory syndrome coronavirus 2, Vero.
In assay [12] the test system is Middle East respiratory syndrome-related coronavirus. In words: Antiviral activity against MERS-CoV infected in human Calu-3 cells assessed as inhibition of viral growth. The assay is classed as functional, organism-based.

Structures can show the parent of a compound that is named as a salt.

Virion infectivity factor, sequence (P12504 1-150 limits assumed): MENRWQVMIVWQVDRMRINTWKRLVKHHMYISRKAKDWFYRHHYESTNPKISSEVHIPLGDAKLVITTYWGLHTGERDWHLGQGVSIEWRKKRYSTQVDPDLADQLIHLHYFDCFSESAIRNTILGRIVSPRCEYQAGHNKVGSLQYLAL
Virion infectivity factor, sequence (P12504 151-192 limits assumed): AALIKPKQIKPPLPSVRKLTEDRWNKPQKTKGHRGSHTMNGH

Turning to `CN(C)C(=O)COC(=O)Cc1ccc(OC(=O)c2ccc(NC(=N)N)cc2)cc1.CS(=O)(=O)O` [CAMOSTAT MESILATE], the Activity in the assay on SARS-CoV-2 [1] is 60%. In the case of `C/C=C/C[C@@H](C)[C@@H](O)[C@H]1C(=O)N[C@@H](CC)C(=O)N(C)CC(=O)N(C)[C@@H](CC(C)C)C(=O)N[C@@H](C(C)C)C(=O)N(C)[C@@H](CC(C)C)C(=O)N[C@@H](C)C(=O)N[C@H](C)C(=O)N(C)[C@@H](CC(C)C)C(=O)N(C)[C@@H](CC(C)C)C(=O)N(C)[C@@H](C(C)C)C(=O)N1C` [CYCLOSPORINE], the IC50 with Hepatitis B virus came out at 5780 nM. Take `Cc1c(-c2ccc(-c3ccccc3F)cc2)nc2ccc(F)cc2c1C(=O)O` [BREQUINAR]: the 50% cytotoxic concentration (CC50) in the assay with Caco-2 stood at 231000 nM. In addition, the EC50 in the assay with SARS-CoV-2 [2] is 123 nM. As to `COc1ccccc1NC(=O)c1ccccc1Sc1ccc([N+](=O)[O-])cc1`, the half-maximal effective concentration (EC50) in [3] was determined as 6000 nM.

In the case of `O=C(CCNC(=O)c1ccc(OC(F)(F)F)cc1)C[C@H]1CCCc2ccccc21`, the IC50 in the assay on Enterovirus A71 is 66 nM. Consider `COc1ccc([C@H]2c3[nH]c4ccc(Cl)cc4c3CCN2C(=O)Oc2ccc(Cl)cc2)cc1` [EMVODODSTAT], for which the EC50 in the assay on SARS-CoV-2 [4] came to 2 nM. Consider `COCCNC(=O)[C@@H]1C[C@@H](Sc2nc3ccccc3[nH]2)CN1Cc1ccc2c(c1)Cc1ccccc1-2`, for which the half-maximal effective concentration (EC50) (in [5]; in [6]; in the assay with Hepatitis C virus; in assay [7]) was 2 nM throughout. `Cc1oncc1C(=O)Nc1ccc(C(F)(F)F)cc1` [LEFLUNOMIDE]: in the assay with MT4, the CC50 stood at 178000 nM. Besides, the concentration for a half-maximal effect (EC50) in the assay on West Nile virus is 35000 nM.

`CCOC(=O)c1cc(C(=O)c2ccc3ccccc3c2)n2ccc(C(=O)c3ccncc3)cc12` had a 50% inhibitory concentration (IC50) in [8] of 11000 nM. For `CONC(=O)[C@H]1[C@@H](O)[C@@]2(O)c3c(OC)cc(OC)cc3O[C@@]2(c2ccc(OC)cc2)[C@@H]1c1ccccc1`, in the assay with SARS-CoV-2 [9], the EC50 worked out at 1.82 nM. On to `COc1cc2c(c(OC)n1)[C@]1(O)[C@H](O)[C@H](CN(C)C)[C@@H](c3ccccc3)[C@]1(c1ccc(C#N)cc1)O2` [ZOTATIFIN], for which the EC50 in the assay on SARS-CoV-2 [9] is 37 nM. For `N=C(N)Nc1ccc(C(=O)Oc2ccc3cc(C(=N)N)ccc3c2)cc1` [NAFAMOSTAT MESYLATE], the concentration for a half-maximal effect (EC50) worked out at 1.4 nM in the assay on SARS-CoV-2 [10], 5 nM in the assay with SARS-CoV-2 [11] and 5.9 nM in assay [12]. Regarding `CC[C@@H]1NC(=O)[C@H]([C@@H]2O[C@@H](Sc3cccc(OCc4ccccc4)c3)C[C@H]2C)N(C)C(=O)[C@H](C(C)C)N(C)C(=O)[C@H](CC(C)C)N(C)C(=O)[C@H](CC(C)C)N(C)C(=O)[C@@H](C)NC(=O)[C@H](C)NC(=O)[C@H](CC(C)C)N(C)C(=O)[C@H](C(C)C)NC(=O)[C@H](CC(C)C)N(C)C(=O)CN(C)C1=O`, the concentration for half-maximal inhibition (IC50) with Hepatitis B virus was found to be 110 nM.
